Test results taken from patent publication US6207399A, “Methods of determining endogenous thrombin potential (ETP) and thrombin substrates for use in said methods” (Hemker; Hendrik Coenraad, priority 1995, dated 2001).
Square brackets hold non-standard residues; d marks the D form. Peptide text beside a SMILES is read from it. * marks the point of attachment. pNA = O=[N+]([O-])c1ccc(N*)cc1; Nle = CCCC[C@H](N)C(=O)O; Orn = NCCC[C@H](N)C(=O)O

What was measured:
Type in all cases: biochemical
factor Xa = target: T1, factor Xa (Homo sapiens, UniProt P00742); assay: Kinetic parameters of hydrolysis of the substrates by factor Xa in buffer A at 37° C. (Example 4, Table 3); set-up: key to Factor Xa kcat: NH: no hydrolysis; details: for Factor Xa kcat / Factor Xa kcat /Km / Km: buffer A, 37° C., 50 nM factor Xa
T1 construct: human factor Xa samples; gift of Dr. T. Lindhout (University of Limburg, Maastricht)
Procedure: (§1) Kinetic parameters: The hydrolysis experiments were run in buffer A at 37° C. The liberation of p-nitroaniline was monitored at 405 nm in a dual wavelength (405-546 nm) spectrophotometer made in our workshop, using a personal computer for data recording. In a polystyrene microcuvette (total volume 500 μL), buffer A and substrate solution were added to obtain a final substrate concentration between 200 to 2000 μM. After 5 min of incubation at 37° C., enzyme solution was added to achieve a final concentration between 0.5 to 50 nM. The measurement was carried out at 37° C. in a thermostated cuvette-holder. The Michaelis constant (Km) and the catalytic constant (kcat) were obtained by measuring the initial reaction velocities at different substrate concentrations. The data obtained were fitted by linear regression on the Michaelis-Menten equation.
(§2) Kinetic parameters: The Km and kcat values for each substrate were determined at an enzyme concentration of 0.5-50 nM (thrombin) and 50 nM factor Xa. From the initial reaction velocities, measured for at least six substrate concentrations between 200 and 2000 μM, the Km and kcat values were calculated by linear regression on the Michaelis-Menten curve. Table 3 gives an overview of the kinetic parameters of the different substrates hydrolyzed by thrombin and by factor Xa in buffer A.

thrombin = thrombin (Homo sapiens, UniProt P00734); assay: Kinetic parameters of hydrolysis of the substrates by thrombin in buffer A at 37° C. (Example 4, Table 3); set-up: Pure human α-thrombin; gift of Dr. T. Lindhout (University of Limburg, Maastricht); key to Thrombin kcat: NH: no hydrolysis; details: for Km / Thrombin kcat / Thrombin kcat /Km: buffer A, 37° C.
Procedure: as §1, §2

human α-thrombin = target: T2, human α-thrombin (Homo sapiens, UniProt P00734); assay: Kinetics of hydrolysis of substrates by human α-thrombin in buffer A at 37° C. (Example 2, Table 1)
T2 construct: Pure human α-thrombin; gift of Dr. T. Lindhout (University of Limburg, Maastricht)
Procedure: as §1, with “between 1” for “between 200”, “to 100” for “to 50”, “measuring” for “measuring the”
Kinetic parameters: In a preliminary experiment, the substrate was hydrolyzed under the following conditions: enzyme concentration: 10 to 20 nM, substrate concentration: 200 μM in buffer A to get an impression of the initial velocity. […] The results are given in table 1 and 2 for thrombin and factor Xa respectively. The Km and kcat for each substrate were determined from the initial velocities measured for at least six substrate concentrations in the concentration range as given. The enzyme concentration used gives a good signal to noise ratio. The data given are obtained from one or two experiments. The data from table 1 and 2 were only used as the first selection criterion to get a rough impression of the hydrolysis behaviour. Notwithstanding the preliminary character of the measurement it was helpful in the design of the substrates of our interest.

T1 sequence (P00742 41-179 limits assumed): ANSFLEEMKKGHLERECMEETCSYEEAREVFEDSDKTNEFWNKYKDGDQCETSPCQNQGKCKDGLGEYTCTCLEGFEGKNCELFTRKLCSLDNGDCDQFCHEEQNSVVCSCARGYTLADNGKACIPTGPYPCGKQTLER
T1 sequence (P00742 235-488 limits assumed): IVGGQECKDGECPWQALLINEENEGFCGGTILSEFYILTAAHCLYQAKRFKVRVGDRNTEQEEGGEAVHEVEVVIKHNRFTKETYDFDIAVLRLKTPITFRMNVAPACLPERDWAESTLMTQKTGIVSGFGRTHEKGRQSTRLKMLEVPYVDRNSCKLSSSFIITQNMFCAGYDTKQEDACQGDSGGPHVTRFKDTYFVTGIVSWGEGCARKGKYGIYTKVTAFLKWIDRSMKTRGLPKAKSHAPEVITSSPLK

Factor Xa kcat (factor Xa) | Km (thrombin) [µM] | Thrombin kcat (thrombin) | Thrombin kcat /Km (thrombin) [M/s] | Km (human α-thrombin) [µM] | kcat (human α-thrombin) [s⁻¹] | kcat /Km (human α-thrombin) [M/s] | Compound | hydrolysis by Factor Xa (text on Table 3) (factor Xa) | hydrolysis by thrombin (text on Table 3) (thrombin) | Factor Xa kcat /Km (factor Xa) [M/s] | Km (factor Xa) [µM]
NH | 986 | 0.20 s⁻¹ | 198 |  |  |  | CC(C)[C@H](NC(=O)CN)C(=O)N[C@@H](CCCCN)C(=O)Nc1ccc([N+](=O)[O-])cc1.Cl.Cl [2HCl.H-Gly-Val-Lys pNA, 2HCl.H-Gly-Val-Lys-pNA] (H-Gly-Val-Lys-pNA) | not by Factor Xa | hydrolysed by thrombin |  | 
NH |  | NH |  |  |  |  | CCCC[C@H](NC(=O)[C@@H](NC(=O)CN)C(C)C)C(=O)Nc1ccc([N+](=O)[O-])cc1.Cl [HCl.H-Gly-Val-Nle-pNA] (H-Gly-Val-[Nle]-pNA) | hydrolysed by neither thrombin nor Factor Xa | hydrolysed by neither thrombin nor Factor Xa |  | 
NH |  | NH |  |  |  |  | CC(C)[C@H](NC(=O)CN)C(=O)N[C@@H](CCCN)C(=O)Nc1ccc([N+](=O)[O-])cc1.Cl.Cl [2HCl.H-Gly-Val-Orn-pNA] (H-Gly-Val-[Orn]-pNA) | hydrolysed by neither thrombin nor Factor Xa | hydrolysed by neither thrombin nor Factor Xa |  | 
NH |  | NH |  |  |  |  | CC(C)[C@H](NC(=O)OCCS(C)(=O)=O)C(=O)N[C@@H](CCCCN)C(=O)Nc1ccc([N+](=O)[O-])cc1.Cl [Msc-Val-Lys-pNA.HCl] |  |  |  | 
NH |  | NH |  |  |  |  | CC(C)C(N)C(=O)NC(CCCCN)C(=O)Nc1ccc([N+](=O)[O-])cc1.Cl.Cl (stereo not drawn) [2HCl.H-Val-Lys-pNA] |  |  |  | 
NH |  | NH |  |  |  |  | CCCC[C@H](NC(=O)[C@@H](NC(=O)OCCS(C)(=O)=O)C(C)C)C(=O)Nc1ccc([N+](=O)[O-])cc1 [Msc-Val-Nle-pNA] |  |  |  | 
NH | 35 | 90 s⁻¹ | 2.58e+06 | 35 | 90.4 | 2.58e+06 | Cl.Cl.NCCCC[C@H](NC(=O)[C@@H]1CCCN1C(=O)[C@H](N)Cc1ccccc1)C(=O)Nc1ccc([N+](=O)[O-])cc1 [2HCl.H-D-Phe-Pro-Lys-pNA] (H-[dF]-Pro-Lys-pNA) |  |  |  | 
1.07 s⁻¹ | 932 | 1.44 s⁻¹ | 1540 |  |  |  | CC(C)[C@H](NC(=O)[C@@H](N)CCC(=O)O)C(=O)N[C@@H](CCCNC(=N)N)C(=O)Nc1ccc([N+](=O)[O-])cc1.Cl.Cl [2HCl.H-Glu-Val-Arg-pNA] (H-Glu-Val-Arg-pNA) |  |  | 709 | 1510

Compound | Factor Xa kcat (factor Xa) | Km (thrombin) [µM] | Thrombin kcat (thrombin) | Thrombin kcat /Km (thrombin) [M/s] | Km (human α-thrombin) [µM] | kcat (human α-thrombin) [s⁻¹] | kcat /Km (human α-thrombin) [M/s] | hydrolysis by Factor Xa (text on Table 3) (factor Xa) | hydrolysis by thrombin (text on Table 3) (thrombin) | Factor Xa kcat /Km (factor Xa) [M/s] | Km (factor Xa) [µM]
CC(C)[C@H](NC(=O)CNC(=O)[C@@H](N)CCC(=O)O)C(=O)N[C@@H](CCCNC(=N)N)C(=O)Nc1ccc([N+](=O)[O-])cc1 [2HCl.H-Glu-Gly-Val-Arg-pNA] (H-EGVR-pNA) | 0.93 s⁻¹ | 3270 | 3.51 s⁻¹ | 1070 |  |  |  |  |  | 638 | 1430
CC(C)[C@H](NC(=O)CNC(=O)CNC(=O)[C@@H]1CCCN1C(=O)[C@@H](N)CCC(=O)O)C(=O)N[C@@H](CCCNC(=N)N)C(=O)Nc1ccc([N+](=O)[O-])cc1 [2HCl.H-EPGGVR-pNA, 2HCl.H-Glu-Pro-Gly-Gly-Val-Arg-pNA] (H-EPGGVR-pNA) | 0.45 s⁻¹ |  | NH |  |  |  |  |  |  | 468 | 961
CC(C)[C@H](NC(=O)CNC(=O)CNC(=O)CNC(=O)[C@@H](N)CCC(=O)O)C(=O)N[C@@H](CCCNC(=N)N)C(=O)Nc1ccc([N+](=O)[O-])cc1 [2HCl.H-EGGGVR-pNA, 2HCl.H-Glu-Gly-Gly-Gly-Val-Arg-pNA] (H-EGGGVR-pNA) | 0.30 s⁻¹ | 379 | 0.27 s⁻¹ | 704 |  |  |  |  |  | 201 | 1490
